In PMC6832503, “Synthesis of Novel Nicotinic Ligands with Multimodal Action: Targeting Acetylcholine α4β2, Dopamine and Serotonin Transporters” (Molecules, 2019):

Assays:
α4β2 nAChR = target: T1, α4β2 nAChR (Rattus norvegicus, UniProt P09483+P12390); assay: [3H]-cytisine competitive binding on whole rat brain synaptosomes
T1 construct: the rat complete brain P1 fraction (occupying 2 mg of wet tissue for each assay); from tissue; host or cells: whole rat brain, synaptosome pellet (fraction P1)
Protocol: (§1) To evaluate the affinity (Ki) of our compounds, competitive binding assays in α4β2 nAChR using [^3H]-cytisine as radioligand ([^3H]-Cyt) was measured. Binding experiments were carried out on whole rat brain synaptosomes. To evaluate the affinity on the monoamine transporters SERT and DAT, binding affinity (Ki) was determined using [^3H]-WIN 35,428 ([^3H]-WIN) for h-DAT and [^3H]-paroxetine ([^3H]-parox) for h-SERT as specific radioligands for the corresponding monoamine transporters respectively. Competitive binding studies were carried out on homogenized membranes prepared from the human clonal cell line HEK293 for h-SERT (Perkin Elmer) and CHO-K1 for h-DAT (Perkin Elmer). […].
Preparation of the synaptosome fraction: the rats were sacrificed by decapitation, and their brain removed without dissecting. Brain tissue was homogenized in 40 volumes using a buffer of 0.32 M sucrose at pH 7.4, containing 1 mM EDTA, 0.1 mM PMSF, and 0.01% of cold and freshly prepared NaN3, through a glass homogenizer and teflon stem. The homogenate was distributed in Eppendorf tubes and centrifuged at 20,000 g for 30 min at 4 °C to produce a synaptosome pellet (fraction P1) which is used for the binding assay. This fraction P1 was subsequently stored at −80 °C.
Binding assay of [^3H]-cytisine in α4β2 nAChR cells: the rat complete brain P1 fraction (occupying 2 mg of wet tissue for each assay) was incubated in 2500 μL of 20 mM HEPES buffer solution at pH 7.4 containing 118 mm NaCl, 4.8 mm KCl, 2.5 mm CaCl2, 200 mm Tris, 0.1 mm PMSF and 0.01% NaN3 with or without the different drugs under study at different concentrations, in the presence of 1 nM of [^3H]-cytisine (specific activity 35.8 Ci/mmol, Code NET1054025UC, Perkin-Elmer, Santiago, Chile) in a final volume of 250 μL. Non-specific binding was determined using 2.5 mM of cytisine. Incubation was performed for 30 min at room temperature and then for 60 min at 4 °C. Incubation was stopped by rapid filtration in Whatman GF/C filter preabsorbed in 0.5% polyethylenimine, which were washed with cold and fresh working buffer 7 times, then dried, and adding scintillation liquid, left for the whole night in Eppendorf tubes in order to measure later the radioactivity by liquid scintillation spectrometry (MicroBeta 2450 microplate counter, PerkinElmer, Santiago, Chile). The data were plotted by non-linear regression variable inhibitor-response dose (Prism 5.01, GraphPad, San Diego, CA, USA) to obtain the IC50 and Ki values of the tested compounds using the Cheng-Prusoff equation.

h-SERT = target: T2, h-SERT (Homo sapiens, UniProt P31645); assay: [3H]-paroxetine radioligand binding on h-SERT membranes (HEK293); conditions: for % radioligand binding at 25 µM / % of Binding [3H]-Paroxetine h-SERT: 25 μM compound, 2 nM [3H]-paroxetine, HEK293 h-SERT membranes; for affinity for h-SERT (displacement of [3H]-paroxetine from the central binding site): result in words
T2 construct: purchased Perkin-Elmer RBHSTM400UA; host or cells: HEK293 membranes
Protocol: as §1
The cellular background HEK293 containing 400 μL of h-SERT (Code RBHSTM400UA, Perkin-Elmer, Santiago, Chile) was diluted in 12 Eppendorf tubes, containing a storage buffer solution of Tris-HCl 50 mM (pH 7.4), EDTA 0.5 mM, MgCl2 10 mM and 10% sucrose, obtaining a final volume between 260 and 340 μL, which was finally stored at −80 °C [46].
Each Eppendorf tube was incubated with 50 mM Tris HCl buffer (pH 7.4), 120 mM NaCl, 5 mM KCl and the drugs under study using increasing concentrations, in presence of 2 nM of [^3H]-paroxetine (specific activity 23.1 Ci/mmol, Code NET86925UC, Perkin-Elmer, Santiago, Chile) with a final volume of 250 μL [46]. Non-specific binding was determined using […] fluoxetine. After 30 min at 27 °C, the incubation was stopped by rapid filtration on a Whatman GF/C filter preabsorbed in 0.5% polyethylenimine (PEI), washed with cold working buffer solution, 3 × 3mL, filtered, and scintillation liquid was added. The radioactivity was measured by liquid scintillation spectrometry (MicroBeta 2450 microplate counter, PerkinElmer, Santiago, Chile). The data were represented in a bar graph using 25 μM concentration for both, the compound under study and fluoxetine as the non-specific ligand. Each bar represents the mean ± S.E.M obtained in the experiments carried out in triplicates.

h-DAT = target: T3, h-DAT (Homo sapiens, UniProt Q01959); assay: [3H]-WIN 35,428 competitive binding on h-DAT membranes (CHO-K1)
T3 construct: purchased Perkin-Elmer RBHDATM400UA; host or cells: CHO-K1 membranes
Protocol: as §1
The cellular background CHO-K1 with 400 μL of h-DAT (Code RBHDATM400UA, Perkin-Elmer, Santiago, Chile) was diluted in 12 Eppendorf tubes, with a storage buffer solution of Tris-HCl 50 mM (pH 7.4), EDTA 0.5 mM, MgCl2 10 mM and 10% sucrose, obtaining a final volume of 260–340 μL stored at −80 °C [46]. Each Eppendorf tube was incubated in 50 mM Tris-HCl buffer solution (pH 7.4), 100 mM NaCl, the drugs under study were using increasing concentrations, with 1 nM of [^3H]-WIN 35,428 (specific activity 82.6 Ci/mmol, Code NET1033025UC, Perkin-Elmer, Santiago, Chile) with a final volume of 250 μL. Non-specific binding was determined using 10 mM methylphenidate.
After 120 min at 4 °C, the incubation was stopped by rapid filtration on a Whatman GF/C filter preabsorbed in 0.5% polyethylenimine (PEI), washed with cold working buffer solution, 3 x 3mL, filtered, and scintillation liquid was added. The radioactivity was measured by liquid scintillation spectrometry (MicroBeta 2450 microplate counter, PerkinElmer, Santiago, Chile). The data were plotted by non-linear regression variable inhibitor-response dose (Prism 5.01, GraphPad, San Diego, CA, USA) to estimate the IC50 and Ki values for the tested compounds using the Cheng-Prusoff equation.

| SMILES | Ki (α4β2 nAChR) [µM] | % radioligand binding at 25 µM (h-SERT; values above 100 = increased radioligand binding) [%] | affinity for h-SERT (displacement of [3H]-paroxetine from the central binding site) (h-SERT) | Ki (µM) h-DAT (h-DAT) | Ki (µM) α4β2 nAChR (α4β2 nAChR) | % of Binding [3H]-Paroxetine h-SERT (h-SERT; […]) | % radioligand binding at 25 µM (h-SERT; […]) [%] | Ki (h-DAT) [µM] |
| --- | --- | --- | --- | --- | --- | --- | --- | --- |
| CN1CCCC1CCOC(=O)c1ccccc1 (racemic) [Compound 7, (±)-2-(1-Methyl-2-pyrrolidinyl)ethyl benzoate] | 1.79 ± 0.378 | 100 ± 0.5 | no affinity | no affinity and N.E |  |  |  |  |
| CN1CCCC1CCOC(=O)c1cccc(F)c1 (racemic) [Compound 8, (±)-2-(1-Methyl-2-pyrrolidinyl)ethyl 3-fluorobenzoate] |  |  |  | N.E | N.E | increase in the binding | 140 ± 2 |  |
| CN1CCCC1CCOC(=O)c1cccc(Cl)c1 (racemic) [Compound 9, (±)-2-(1-Methyl-2-pyrrolidinyl)ethyl 3-chlorobenzoate] | 3.46 ± 0.36 |  |  | N.E |  |  | 108 ± 1.2 |  |
| Cc1ccccc1C(=O)OCCC1CCCN1C (racemic) [Compound 11, (±)-2-(1-Methyl-2-pyrrolidinyl)ethyl 2-methylbenzoate] |  |  | did not display affinity | did not display affinity | did not display affinity |  |  |  |
| Cc1ccc(C(=O)OCCC2CCCN2C)cc1 (racemic) [Compound 12, (±)-2-(1-Methyl-2-pyrrolidinyl)ethyl 4-methylbenzoate] |  |  | did not display affinity | did not display affinity | did not display affinity |  |  |  |
| CN1CCCC1CCOC(=O)Cc1ccccc1 (racemic) [Compound 16, (±)-2-(-1-Methyl-2-pyrrolidinyl)ethyl 2-phenylacetate] |  |  |  |  | N.E |  | 92 ± 0.3 | 22.7 ± 7.1 |
| CN1CCCC1CCOC(=O)Cc1ccc(Cl)c(Cl)c1 (racemic) [Compound 17, (±)-2-(-1-Methyl-2-pyrrolidinyl)ethyl 2-(3,4-dichlorophenyl)acetate] |  |  |  |  | N.E |  | 78 ± 0.6 | 3.32 ± 0.923 |
| CN1CCCC1CCOC(=O)c1ccc2ccccc2c1 (racemic) [Compound 19, (±)-2-(1-Methyl-2-pyrrolidinyl)ethyl 2-naphthoate] |  |  |  |  | N.E | increase in the binding | 126 ± 1.9 | 44.2 ± 8.12 |
| CN1CCCC1CCOC(=O)C(c1ccccc1)c1ccccc1 (racemic) [Compound 21, (±)-2-(-1-Methyl-2-pyrrolidinyl)ethyl 2,2-diphenylacetate] | 0.113 ± 0.037 |  |  |  |  |  | 86.5 ± 1.5 | 0.075 ± 0.009 |
| CN1CCC[C@H]1COC(=O)c1ccccc1 [Compound 1, (S)-(1-Methyl-2-pyrrolidinyl)methyl Benzoate] | 0.023 ± 0.006 |  |  | N.E |  |  | 86 ± 0.6 |  |
| CN1CCC[C@H]1COC(=O)c1cccc(F)c1 [Compound 2, (S)-(1-Methyl-2-pyrrolidinyl)methyl 3-fluorobenzoate] | 0.094 ± 0.002 |  |  | N.E |  | increase in the binding | 123 ± 1.2 |  |
| CN1CCC[C@H]1COC(=O)c1cccc(Cl)c1 [Compound 3, (S)-(1-Methyl-2-pyrrolidinyl)methyl 3-chlorobenzoate] | 0.009 ± 0.001 |  | lacks affinity | lacks affinity and N.E |  |  | 87.5 ± 1.5 |  |
| CN1CCC[C@H]1COC(=O)c1cccc(Br)c1 [Compound 4, (S)-(1-Methyl-2-pyrrolidinyl)methyl 3-bromobenzoate] | 0.132 ± 0.038 |  |  | N.E |  | increase in the binding | 137 ± 1.2 |  |
| Cc1ccccc1C(=O)OC[C@@H]1CCCN1C [Compound 5, (S)-(1-Methyl-2-pyrrolidinyl)methyl 2-methylbenzoate] |  |  | did not display affinity | did not display affinity | did not display affinity |  |  |  |
